# Test results taken from PubChem BioAssay AID2060910 (Molecular Pharmacology Branch, DTP, NCI, 2025).
# Test system: 242566-281-R-J2-PDC complex spheroid viability
# Assay: Anticancer human tumor 242566-281-R-J2-PDC patient-derived pancreatic carcinoma cell line growth inhibition [RAS]
# Conditions: for viability, T/C: stronger effect = lower value
# Summary of the method: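 Agents were tested in combination matrices in half-log decrements from a top concentration at or near clinical Cmax (10 microM if undetermined). Targets were multi-cell spheroids of tumour lines plus HUVEC and MSC stromal cells.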
# 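Also: spheroids exposed to compound for 7 days before readout.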
# 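For viability, T/C in this document: 100% = DMSO vehicle control wells.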
smiles,measurement,setting,value
CC(Nc1ccc2c(c1)OCCn1cc(N3C(=O)OCC3C(F)F)nc1-2)C(N)=O (stereo not drawn),"viability, T/C",compound 0.0316 µM,99.1% [middle of 4 runs]
same,"viability, T/C",compound 0.1 µM,99.7% [middle of 4 runs]
same,"viability, T/C",compound 1 µM,57.4% [middle of 4 runs]
same,"viability, T/C",compound 3.16 µM,37.6% [middle of 4 runs]
same,"viability, T/C",compound 10 µM,28.8% [middle of 4 runs]
same,IC50,curve of compound,1.41 µM [middle of 4 runs]
CCC(CC)c1cc(NC2CCC(N)C2)n2nccc2n1 (stereo not drawn),"viability, T/C",compound 0.0316 µM,105% [middle of 4 runs]
same,"viability, T/C",compound 0.1 µM,119% [middle of 4 runs]
same,"viability, T/C",compound 0.316 µM,105% [middle of 4 runs]
same,"viability, T/C",compound 1 µM,114% [middle of 4 runs]
same,"viability, T/C",compound 10 µM,2.75% [middle of 4 runs]
same,IC50,curve of compound,4.51 µM [middle of 4 runs]
O=C(c1ccc(F)c(F)c1Nc1ccc(I)cc1F)N1CC(O)([C@@H]2CCCCN2)C1 + CCn1c(-c2cc(N3CCN(C)CC3)cnc2C(C)OC)c2c3cc(ccc31)-c1csc(n1)CC(NC(=O)C1CC1C)C(=O)N1CCCC(N1)C(=O)OCC(C)(C)C2,IC50,"curve of first compound, second compound 0.000949 µM",35.4 nM
same,IC50,"curve of first compound, second compound 0.003 µM",12.2 nM
same,IC50,"curve of first compound, second compound 0.00949 µM",< 3.16 nM
same,IC50,"curve of first compound, second compound 0.03 µM",< 3.16 nM
same,IC50,"curve of first compound, second compound 0.0949 µM",< 3.16 nM
same,IC50,"curve of first compound, second compound 0.3 µM",< 3.16 nM
same,"viability, T/C","second compound 0.000949 µM, first compound 0.00316 µM",89.8%
same,"viability, T/C","second compound 0.000949 µM, first compound 0.01 µM",71.1%
same,"viability, T/C","second compound 0.000949 µM, first compound 0.0316 µM",44.3%
same,"viability, T/C","second compound 0.000949 µM, first compound 0.1 µM",42.3%
same,"viability, T/C","second compound 0.000949 µM, first compound 0.316 µM",29%
same,"viability, T/C","second compound 0.000949 µM, first compound 1 µM",16.6%
same,"viability, T/C","second compound 0.003 µM, first compound 0.00316 µM",72.4%
same,"viability, T/C","second compound 0.003 µM, first compound 0.01 µM",47.5%
same,"viability, T/C","second compound 0.003 µM, first compound 0.0316 µM",39.8%
same,"viability, T/C","second compound 0.003 µM, first compound 0.1 µM",32.4%
same,"viability, T/C","second compound 0.003 µM, first compound 0.316 µM",23.1%
same,"viability, T/C","second compound 0.003 µM, first compound 1 µM",15.4%
same,"viability, T/C","second compound 0.00949 µM, first compound 0.00316 µM",39.9%
same,"viability, T/C","second compound 0.00949 µM, first compound 0.01 µM",30.8%
same,"viability, T/C","second compound 0.00949 µM, first compound 0.0316 µM",30.6%
same,"viability, T/C","second compound 0.00949 µM, first compound 0.1 µM",21.9%
same,"viability, T/C","second compound 0.00949 µM, first compound 0.316 µM",15.2%
same,"viability, T/C","second compound 0.00949 µM, first compound 1 µM",16.2%
same,"viability, T/C","second compound 0.03 µM, first compound 0.00316 µM",24.9%
same,"viability, T/C","second compound 0.03 µM, first compound 0.01 µM",21.4%
same,"viability, T/C","second compound 0.03 µM, first compound 0.0316 µM",19.8%
same,"viability, T/C","second compound 0.03 µM, first compound 0.1 µM",18%
same,"viability, T/C","second compound 0.03 µM, first compound 0.316 µM",14.5%
same,"viability, T/C","second compound 0.03 µM, first compound 1 µM",14%
same,"viability, T/C","second compound 0.0949 µM, first compound 0.00316 µM",21.9%
same,"viability, T/C","second compound 0.0949 µM, first compound 0.01 µM",17.8%
same,"viability, T/C","second compound 0.0949 µM, first compound 0.0316 µM",17.6%
same,"viability, T/C","second compound 0.0949 µM, first compound 0.1 µM",14.1%
same,"viability, T/C","second compound 0.0949 µM, first compound 0.316 µM",11.2%
same,"viability, T/C","second compound 0.0949 µM, first compound 1 µM",12.3%
same,"viability, T/C","second compound 0.3 µM, first compound 0.00316 µM",17.4%
same,"viability, T/C","second compound 0.3 µM, first compound 0.01 µM",16.4%
same,"viability, T/C","second compound 0.3 µM, first compound 0.0316 µM",13.3%
same,"viability, T/C","second compound 0.3 µM, first compound 0.1 µM",14.1%
same,"viability, T/C","second compound 0.3 µM, first compound 0.316 µM",10.9%
same,"viability, T/C","second compound 0.3 µM, first compound 1 µM",11.3%
C[C@@H](NC(=O)c1ncnc(N)c1Cl)c1ncc(C(=O)Nc2cc(C(F)(F)F)c(Cl)cn2)s1 + C=CC(=O)N1CCN(c2nc(OCC3CCCN3C)nc3c(F)c(-c4nc(N)cc(C)c4C(F)(F)F)c(Cl)cc23)C(C)C1,IC50,"curve of first compound, second compound 0.00316 µM",> 10000 nM
same,IC50,"curve of first compound, second compound 0.01 µM",> 10000 nM
same,IC50,"curve of first compound, second compound 0.0316 µM",> 10000 nM
same,IC50,"curve of first compound, second compound 0.1 µM",> 10000 nM
same,IC50,"curve of first compound, second compound 0.316 µM",> 10000 nM
same,IC50,"curve of first compound, second compound 1 µM",> 10000 nM
same,"viability, T/C","second compound 0.00316 µM, first compound 0.0316 µM",111%
same,"viability, T/C","second compound 0.00316 µM, first compound 0.1 µM",142%
same,"viability, T/C","second compound 0.00316 µM, first compound 0.316 µM",111%
same,"viability, T/C","second compound 0.00316 µM, first compound 1 µM",106%
same,"viability, T/C","second compound 0.00316 µM, first compound 3.16 µM",110%
same,"viability, T/C","second compound 0.00316 µM, first compound 10 µM",126%
same,"viability, T/C","second compound 0.01 µM, first compound 0.0316 µM",112%
same,"viability, T/C","second compound 0.01 µM, first compound 0.1 µM",148%
same,"viability, T/C","second compound 0.01 µM, first compound 0.316 µM",113%
same,"viability, T/C","second compound 0.01 µM, first compound 1 µM",105%
same,"viability, T/C","second compound 0.01 µM, first compound 3.16 µM",105%
same,"viability, T/C","second compound 0.01 µM, first compound 10 µM",122%
same,"viability, T/C","second compound 0.0316 µM, first compound 0.0316 µM",125%
same,"viability, T/C","second compound 0.0316 µM, first compound 0.1 µM",124%
same,"viability, T/C","second compound 0.0316 µM, first compound 0.316 µM",115%
same,"viability, T/C","second compound 0.0316 µM, first compound 1 µM",123%
same,"viability, T/C","second compound 0.0316 µM, first compound 3.16 µM",97.1%
same,"viability, T/C","second compound 0.0316 µM, first compound 10 µM",118%
same,"viability, T/C","second compound 0.1 µM, first compound 0.0316 µM",122%
same,"viability, T/C","second compound 0.1 µM, first compound 0.1 µM",153%
same,"viability, T/C","second compound 0.1 µM, first compound 0.316 µM",107%
same,"viability, T/C","second compound 0.1 µM, first compound 1 µM",113%
same,"viability, T/C","second compound 0.1 µM, first compound 3.16 µM",106%
same,"viability, T/C","second compound 0.1 µM, first compound 10 µM",109%
same,"viability, T/C","second compound 0.316 µM, first compound 0.0316 µM",107%
same,"viability, T/C","second compound 0.316 µM, first compound 0.1 µM",124%
same,"viability, T/C","second compound 0.316 µM, first compound 0.316 µM",122%
same,"viability, T/C","second compound 0.316 µM, first compound 1 µM",112%
same,"viability, T/C","second compound 0.316 µM, first compound 3.16 µM",110%
same,"viability, T/C","second compound 0.316 µM, first compound 10 µM",124%
same,"viability, T/C","second compound 1 µM, first compound 0.0316 µM",111%
same,"viability, T/C","second compound 1 µM, first compound 0.1 µM",124%
same,"viability, T/C","second compound 1 µM, first compound 0.316 µM",119%
same,"viability, T/C","second compound 1 µM, first compound 1 µM",103%
same,"viability, T/C","second compound 1 µM, first compound 3.16 µM",117%
same,"viability, T/C","second compound 1 µM, first compound 10 µM",106%
CCn1c(-c2cccnc2C(C)OC)c2c3cc(ccc31)N1CCOC(CC(NC(=O)C(C(C)C)N(C)C(=O)C3(F)CCN(C(=O)C#CC(C)(C)N(C)C)CC3)C(=O)N3CCCC(N3)C(=O)OCC(C)(C)C2)C1 (stereo not drawn),"viability, T/C",compound 0.000949 µM,93.4% [middle of 8 runs]
same,"viability, T/C",compound 0.003 µM,108% [middle of 8 runs]
same,"viability, T/C",compound 0.00949 µM,104% [middle of 8 runs]
same,"viability, T/C",compound 0.03 µM,109% [middle of 8 runs]
same,"viability, T/C",compound 0.0949 µM,98.3% [middle of 8 runs]
same,"viability, T/C",compound 0.3 µM,87.6% [middle of 8 runs]
same,IC50,"compound alone, run of 07/09/2024",> 300 nM
